Data on eleven compounds can be found in paper PMC1885804, “Preferential inhibition of xanthine oxidase by 2-amino-6-hydroxy-8-mercaptopurine and 2-amino-6-purine thiol” (BMC Biochemistry, 2007).

In series [1] the target is T1, bovine XOD (Bos taurus, UniProt P80457).
T1 construct: Bovine milk XOD was procured from Calbiochem (La Jolla, CA, USA); purchased Calbiochem (La Jolla, CA, USA); host or cells: bovine milk
Kind of series: IC50 determination, XOD-catalyzed hydroxylation (uric acid at 293 nm, 6TUA at 350 nm). Particulars: for IC50: 2.8 U/ml bovine XOD, ± SEM. The class given is biochemical. The method, then: One enzyme unit is defined as amount of enzyme required to produce 1 μM uric acid per min per ml reaction mixture from 10 μM of xanthine at 30°C, pH 7.4.
The IC50 values were determined for all the purine and pyrazolopyrimidine-based compounds. […] GRAFIT software procured from Erithacus Software Limited, UK, written by Dr R.J. Leatherbarrow, was employed for calculating the IC50 values.

For series [2], the target named is T2, XOD (Bos taurus, UniProt P80457). Also on record: Bovine milk XOD was procured from Calbiochem (La Jolla, CA, USA); purchased Calbiochem (La Jolla, CA, USA); host or cells: bovine milk. Particulars: cited from earlier work.
For series [3], the target named is T1, bovine XOD. Kind of series: Steady-state kinetics of XOD (Michaelis Menten and Lineweaver Burk plots). The class given is biochemical. The method, then:
The double reciprocal Lineweaver Burk (LB) plots were drawn to find the mechanism of inhibition of XOD by APT and AHMP (Figure 6, 7, 8, 9).
(§1) Percent residual activity of formation of uric acid and 6TUA was determined by subtracting the percentage inhibition from 100%. […] Km and kcat were determined in the absence of the inhibitors.
For competitive inhibition,
-1/Km app = -1/Km (1+ [I]/Ki)
For non-competitive inhibition,
1/Vmax app = (1+ [I]/Ki)/Vmax
The modified LB equation for the mixed inhibition is
1/v = 1/Vmax app + […]/Vmax app [S]0
where, Km app and Vmax app are defined by equations (4) and (5).
Km app = Km {1+([I0]/Ki)}/{1+ ([I0]/KI)}
Vmax app = Vmax/{1+ ([I0]/KI)}
Km app is the apparent Michaelis constant and Vmax app is the apparent maximum velocity of the reaction of XOD with its substrates. Ki and KI are the inhibition constants of the inhibitors.

The subject of another series is XOD and XDH. More on the design: method as in doi:10.1016/0006-2952(63)90012-1. As to conditions: at doses that produced significant toxic effects; cited from earlier work.
The target of series [4] is T1, bovine XOD. Kind of series: In vitro bi-substrate (xanthine + 6MP) simulative experiment, percent residual XOD activity. The class given is biochemical. As to conditions: for Inhibition of 6MP hydroxylation, bi-substrate reaction / Inhibition of xanthine hydroxylation, bi-substrate reaction: observed for 20 min. The method, then:
Percent residual activity for generation of uric acid and 6TUA was determined in the presence of various concentrations of AHMP, APT and allopurinol (Table 2). […] Absorption spectra of the time dependent XOD-mediated bi-substrate reaction in the presence of APT and AHMP are depicted in Figure 4 and Figure 5, respectively.
as §1

The test system of the next series is swiss male mice. Kind of series: Single dose acute toxicity study, fourteen days observation. Type of series: in vivo. The method, then:
In order to evaluate the toxicity of the preferential inhibitors of XOD, the single dose acute toxicity study was performed for both the preferential inhibitors on swiss male mice following a fourteen days observation period. The body weight of the animal ranged from 25–30 gm. […] Gross necropsy of each animal of all groups was conducted and organ weight was recorded after the termination of the study.

For series [5], the target named is T2, XOD. Kind of series: In vitro tri-substrate (hypoxanthine, xanthine, 6MP) simulative study. Type of series: biochemical. More on the design: Bovine milk XOD was procured from Calbiochem (La Jolla, CA, USA); purchased Calbiochem (La Jolla, CA, USA); host or cells: bovine milk. Particulars: xanthine and 6MP together, data not shown.
The target of series [6] is T2, XOD.
Details of series [7]: method as in doi:10.1016/0006-2952(63)90012-1, doi:10.1016/0002-9343(66)90118-5, PMID 14070377. As to conditions: combination with 6MP; cited from earlier work.
Where [8] appears, read: 10 μM hypoxanthine, 0.2 M sodium phosphate buffer pH 7.4, read-out: IC50, XOD inhibition, substrate hypoxanthine.
Setting [9] is: 10 μM xanthine, pH 7.4, read-out: IC50, XOD inhibition, substrate xanthine (xanthine to uric acid).
The mark [10] stands for this setting: read-out: % Activity with 6MP as substrate.
The mark [11] stands for this setting: read-out: % Activity with xanthine as substrate.
[12] abbreviates: read-out: % Activity with xanthine as substrate (converted).
Setting [13] is: single dose 2.5, 5, 10 mg/kg intravenously, mice.
Setting [14] is: single dose 2.5, 5, 10 mg/kg intravenously, mice, fourteen days.
Setting [15] is: substrate 6MP, read-out: Ki (competitive inhibition constant; Ki^1 for APT, Ki^2 for AHMP).
Where [16] appears, read: substrate xanthine, read-out: Ki (competitive inhibition constant; Ki^1 for APT, Ki^2 for AHMP).
The mark [17] stands for this setting: IC50, XOD inhibition, substrate 6MP (6MP to 6TUA), 10 μM 6MP, pH 7.4, 60 min reaction.

Where two headings read alike, the source gives them in different places.

T2 sequence (P80457 whole entry): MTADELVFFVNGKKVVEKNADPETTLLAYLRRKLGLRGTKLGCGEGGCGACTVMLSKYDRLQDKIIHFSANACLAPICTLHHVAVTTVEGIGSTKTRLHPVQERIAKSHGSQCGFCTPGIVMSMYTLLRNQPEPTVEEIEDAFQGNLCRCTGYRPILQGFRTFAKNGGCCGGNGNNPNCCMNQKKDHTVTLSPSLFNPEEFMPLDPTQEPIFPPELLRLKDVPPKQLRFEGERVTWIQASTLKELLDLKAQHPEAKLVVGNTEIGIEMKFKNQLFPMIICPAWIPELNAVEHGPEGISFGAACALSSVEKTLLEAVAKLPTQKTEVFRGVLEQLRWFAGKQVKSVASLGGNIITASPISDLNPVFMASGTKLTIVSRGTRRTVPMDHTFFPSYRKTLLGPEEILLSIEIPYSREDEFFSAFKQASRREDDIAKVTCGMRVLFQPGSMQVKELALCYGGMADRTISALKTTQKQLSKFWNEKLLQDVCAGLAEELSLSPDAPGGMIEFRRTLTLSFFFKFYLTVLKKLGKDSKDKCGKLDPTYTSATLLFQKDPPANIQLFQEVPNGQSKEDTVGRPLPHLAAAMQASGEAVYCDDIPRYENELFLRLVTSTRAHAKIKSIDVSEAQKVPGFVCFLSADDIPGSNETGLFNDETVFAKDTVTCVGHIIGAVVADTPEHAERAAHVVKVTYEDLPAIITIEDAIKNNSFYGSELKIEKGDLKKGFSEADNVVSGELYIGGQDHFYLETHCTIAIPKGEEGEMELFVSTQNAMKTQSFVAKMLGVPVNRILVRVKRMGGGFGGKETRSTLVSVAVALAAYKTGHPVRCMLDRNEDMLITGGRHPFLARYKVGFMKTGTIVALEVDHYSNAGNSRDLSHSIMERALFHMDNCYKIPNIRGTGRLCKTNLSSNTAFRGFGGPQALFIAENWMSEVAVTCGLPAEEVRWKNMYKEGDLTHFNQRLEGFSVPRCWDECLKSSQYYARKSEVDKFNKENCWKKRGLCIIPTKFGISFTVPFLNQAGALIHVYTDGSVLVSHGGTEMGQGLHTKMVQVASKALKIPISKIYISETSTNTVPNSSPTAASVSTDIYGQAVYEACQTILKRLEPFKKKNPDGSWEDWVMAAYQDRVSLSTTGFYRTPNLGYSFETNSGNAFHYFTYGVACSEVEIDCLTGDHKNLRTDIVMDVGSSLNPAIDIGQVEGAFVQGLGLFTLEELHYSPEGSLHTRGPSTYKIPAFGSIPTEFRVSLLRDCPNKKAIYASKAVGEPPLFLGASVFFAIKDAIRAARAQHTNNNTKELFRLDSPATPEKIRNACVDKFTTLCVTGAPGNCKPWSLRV
T1 sequence (P80457 whole entry): as above

Consider `O=C(Nc1ncnc2nc[nH]c12)c1ccccc1` [6-(N-benzoylamino)purine], for which, at bovine XOD [1], the “Preferential inhibition of the 6MP hydroxylation over xanthine” value is recorded as “did not exhibit any preferential inhibition”.

Take `COc1cc(-c2cnn3c(=O)nc[n-]c23)ccc1[S+]([O-])c1ccccc1.[Na+]` (stereo not drawn) [BOF-4272]: the “Type of XOD inhibition” value on XOD [2] is “mixed type of inhibition”.

For orientation: IC50 means the concentration that gives 50% inhibition. In the case of `Nc1ncnc2[nH]ncc12` [APP, 4-aminopyrazolo 3,4-d pyrimidine], the “Preferential inhibition of the 6MP hydroxylation over xanthine” value at bovine XOD [1] was “did not exhibit any preferential inhibition”. For the same compound, the IC50 on bovine XOD [1] (setting [8]) stood at 6.79 ± 0.28 µM; on bovine XOD [1] (setting [9]), 20.8 ± 0.84 µM; at bovine XOD [1] (read-out: IC50, XOD inhibition, substrate 6MP (6MP to 6TUA), 10 μM 6MP, pH 7.4, 60 min reaction), 12.9 ± 0.69 µM.

With `Sc1ncnc2nc[nH]c12` [6MP, 6-mercaptopurine], the “Vmax (maximum reaction velocity)” value on bovine XOD [3] was found to be 2.85 ± 0.02 µM/min.

In the case of `O=c1c(O)c(-c2ccccc2)oc2cc(O)cc(O)c12` [Galagin], the “Type of XOD inhibition” value at XOD [2] is “mixed type of inhibition”.

Turning to `NNC(N)=O` [semicarbazide], the “Inhibition of XOD and XDH in vivo” value in the series with XOD and XDH is recorded as “less than 50%”.

One may read the Ki as the equilibrium dissociation constant of an inhibitor or competing ligand from its target. Consider `Nc1nc2[nH]c(S)nc2c(=O)[nH]1` [AHMP, 2-amino-6-hydroxy-8-mercaptopurine], for which the “Inhibition of 6MP hydroxylation, bi-substrate reaction” value on bovine XOD [4] (inhibitor 2 μM) is on record as “Almost complete inhibition”. Also, the “Inhibition of xanthine hydroxylation, bi-substrate reaction” value at bovine XOD [4] (inhibitor 2 μM) is “little inhibition”. Further, the activity at 0.5 µM at bovine XOD [4] (setting [10]) is 59 ± 4.01%; at bovine XOD [4] (setting [11]) it was 90 ± 1.09%. The activity at 1 µM on bovine XOD [4] (setting [10]) is 47%; on bovine XOD [4] (setting [12]), 85%. The activity at 2.5 µM on bovine XOD [4] (setting [10]) was 18%; at bovine XOD [4] (setting [12]), 64%. For the same compound, the Gross necropsy result in the series with swiss male mice (after termination of the study) is given as “no changes in vital organs”. Also, the “Organ weight as compared with the control groups” value in the series with swiss male mice (after termination of the study) is “No difference in organ weight”. Further, the “Food intake as compared to allopurinol treated groups” value with swiss male mice (setting [13]) was “marginally less”. In addition, the “Weekly food intake as compared to vehicle treated groups” value with swiss male mice (setting [13]) is reported as “decreased”. Moreover, the “Changes in the initial and final body weight” value in the series with swiss male mice (setting [14]) is on record as “No significant changes”. In addition, the General behavioral toxicity entry in the series on swiss male mice (setting [14]) is reported as “No differences in general behavioral toxicity”. Also, the Mechanism of inhibition result on bovine XOD [3] (substrate 6MP) is “mixed inhibition mechanism”; on bovine XOD [3] (substrate xanthine) it was “mixed type of inhibition”. Further, the Ki on bovine XOD [3] (substrate 6MP, read-out: KI^2 (non-competitive inhibition constant) (converted)) is 0.98 µM; at bovine XOD [3] (setting [15]), 0.96 ± 0.01 µM; at bovine XOD [3] (substrate xanthine, read-out: KI^2 (non-competitive inhibition constant) (converted)), 6.24 µM; at bovine XOD [3] (setting [16]) it was 5.78 ± 0.48 µM. Besides, the “Discriminatory inhibition in tri-substrate simulative study” value at XOD [5] is “discriminatory inhibition of the 6MP to 6TUA conversion and not hypoxanthine to uric acid conversion”. In addition, the “Difference in the IC50 value in the first and the late phases” value on bovine XOD [1] is listed as “no such difference”. In addition, the “Whether the compound is an XOD substrate” value at bovine XOD [1] is “none were found to be XOD substrates”. Also, the IC50 on bovine XOD [1] (setting [8]) was determined as 5.08 ± 0.04 µM; on bovine XOD [1] (setting [9]) it was 17.7 ± 0.29 µM; against bovine XOD [1] (setting [17]) it was 0.54 ± 0.01 µM.

Take `O=c1c(O)c(-c2ccc(O)cc2O)oc2cc(O)cc(O)c12` [Morin]: the “Type of XOD inhibition” value at XOD [2] is “mixed type of inhibition”.

Regarding `O=c1[nH]c(=O)c2nc[nH]c2[nH]1` [Xanthine, xanthine], the “Vmax (maximum reaction velocity)” value at bovine XOD [3] amounted to 114.54 ± 0.24 µM/min.

In the case of `Nc1nc2nc[nH]c2c(=S)[nH]1` [APT, 2-amino-6-purinethiol], the “Inhibition of 6MP hydroxylation, bi-substrate reaction” value on bovine XOD [4] (inhibitor 5 μM) is reported as “Almost complete inhibition”. Also, the “Inhibition of xanthine hydroxylation, bi-substrate reaction” value on bovine XOD [4] (inhibitor 5 μM) is on record as “little inhibition”. For the same compound, the activity at 0.5 µM on bovine XOD [4] (setting [10]) is 73 ± 2.5%; on bovine XOD [4] (setting [11]), 96 ± 1%. For the same compound, the activity at 1 µM on bovine XOD [4] (setting [10]) was 66%; at bovine XOD [4] (setting [12]), 90%. For the same compound, the results for the activity at 2.5 µM on bovine XOD [4] (setting [10]) and on bovine XOD [4] (setting [12]) were 25% and 80%, respectively. Moreover, the Gross necropsy entry with swiss male mice (mouse, in vivo) was “no changes in vital organs”. Also, the “Organ weight as compared with the control groups” value in the series on swiss male mice (mouse, in vivo) is on record as “No difference in organ weight”. For the same compound, in the series with swiss male mice (setting [14]), the Mortality result is given as “no mortality”. Moreover, the Mechanism of inhibition result at bovine XOD [3] (substrate 6MP) is on record as “competitive inhibition mechanism”; on bovine XOD [3] (substrate xanthine), “Competitive”. Also, the Ki on bovine XOD [3] (setting [15]) stood at 1.3 ± 0.09 µM; at bovine XOD [3] (setting [16]) it was 6.61 ± 0.28 µM. The “Discriminatory inhibition in tri-substrate simulative study” value on XOD [5] was “discriminatory inhibition of the 6MP to 6TUA conversion and not hypoxanthine to uric acid conversion”. Moreover, the “Difference in the IC50 value in the first and the late phases” value on bovine XOD [1] is “no such difference”. In addition, the “Whether the compound is an XOD substrate” value on bovine XOD [1] is listed as “none were found to be XOD substrates”. Also, the results for the IC50 at bovine XOD [1] (setting [8]), at bovine XOD [1] (setting [9]) and against bovine XOD [1] (setting [17]) were 7.28 ± 0.17 µM, 16.4 ± 0.21 µM and 2.57 ± 0.08 µM, respectively.

With `Oc1ncnc2[nH]ncc12` [ALLOPURINOL, allopurinol], at bovine XOD [4] (setting [10]), the activity at 0.5 µM is 83 ± 1.05%, the activity at 1 µM is 48% and the activity at 2.5 µM is 16%. At bovine XOD [4] (setting [11]), the activity at 0.5 µM is 95 ± 1.09%, the activity at 1 µM is 68% and the activity at 2.5 µM is 30%. Moreover, in the series on swiss male mice (mouse, in vivo), the Gross necropsy entry was “no changes in vital organs” and the “Organ weight as compared with the control groups” value is “No difference in organ weight”. In addition, in the series with swiss male mice (setting [14]), the Mortality result is reported as “no mortality”. Further, the “Substrate-induced enzymatic electron transfer / ROS generation on interaction with XOD” value at XOD [6] is listed as “led to substrate-induced enzymatic electron transfer via DCPIP”. For the same compound, the “Potentiation of the antitumor and immunosuppressive properties of 6MP” value in series [7] was “three to four”.
